In data set [1] the test system is CD34+ bone marrow cells undergoing erythroid differentiation. The experiment in a line: Affymetrix GeneChip mRNA expression profiling. It is filed as cell-based, human. From the text: The knockdown results were derived from an independent analysis of publically available raw data (Bradner et al., “Chemical genetic strategy identifies histone deacetylase 1 (HDAC1) and HDAC2 as therapeutic targets in sickle cell disease”, PNAS, vol. 107(28), pp. 12617-22 (2010)) and detection of mRNA by Affymetrix GeneChip.
Among the genes differentially regulated by both pharmacological inhibition and genetic ablation of HDAC1/2 were Bcl11a and Sox6, known HbG repressors, and Gata2, a potential HbG activator.
Then, the cells were differentiated by exposure to either vehicle (control) or Compound 001. FACS was performed at day 5. […] GlyA.
The mechanism through which HDAC1/2 inhibition induces HbG by performing gene expression profiling was interrogated. Because HDAC inhibition prevented cells from fully upregulating GlyA (FIG. 19E), RNA was isolated at day 5 of differentiation, a time point prior to the observed differentiation block.
Next, using the GeneChip data, a candidate gene approach was taken to determine which HbG modulators were changing as a result of both chemical and genetic HDAC1/2 inhibition (FIG. 1A). […] In contrast, other HbG repressors, such as Myb and Klf1 were unaffected. Expression changes were not observed for other genes involved in HbG regulation, including KDM1A (LSD1), NR2C1 (TR2) and NR2C2 (TR4), NR2F2 (COUP-TFII) and nuclear factor Y subunits, and proteins known to associate with Bcl11a12 (data not shown).

The subject of the next data set is HbG mRNA. The data set can be described thus: HbG mRNA levels in peripheral blood of monkeys. It counts as in vivo, cynomolgus monkey. The following applies: monkey, 25 and 75 mg/kg; FIG. 27C-D. Here is the method: B. Cynomolgus monkey were dosed once daily by oral gavage for 5 consecutive days at 0 mg/kg, 25 mg/kg, or 75 mg/kg per dose (FIG. 25B). Sampling as described in ‘A’.
For each individual monkey, HbG mRNA was expressed relative to HbB mRNA and then normalized to their predose level (time=day 0). Points are the median of n=3 animals with error bars showing the range.

The next data set addresses HDAC3 (Homo sapiens, UniProt O15379). The data set can be described thus: in vitro biochemical HDAC inhibition assay.
The test system of data set [2] is human bone marrow-derived CD34+ cells. The data set can be described thus: viability of expanded CD34+ cells. It counts as cell-based. To be noted: 2 days of treatment. From the text:
This possibility was first tested by measuring the viability of expanded human bone marrow-derived CD34+ cells, composed of primitive and more differentiated hematopoietic progenitors of multiple lineages, following 2 days of treatment with compound.

The target of the next data set is HDAC2 (Homo sapiens, UniProt Q92769). The experiment in a line: in vitro biochemical HDAC inhibition assay.
Chain of HDAC2 (Q92769 whole entry): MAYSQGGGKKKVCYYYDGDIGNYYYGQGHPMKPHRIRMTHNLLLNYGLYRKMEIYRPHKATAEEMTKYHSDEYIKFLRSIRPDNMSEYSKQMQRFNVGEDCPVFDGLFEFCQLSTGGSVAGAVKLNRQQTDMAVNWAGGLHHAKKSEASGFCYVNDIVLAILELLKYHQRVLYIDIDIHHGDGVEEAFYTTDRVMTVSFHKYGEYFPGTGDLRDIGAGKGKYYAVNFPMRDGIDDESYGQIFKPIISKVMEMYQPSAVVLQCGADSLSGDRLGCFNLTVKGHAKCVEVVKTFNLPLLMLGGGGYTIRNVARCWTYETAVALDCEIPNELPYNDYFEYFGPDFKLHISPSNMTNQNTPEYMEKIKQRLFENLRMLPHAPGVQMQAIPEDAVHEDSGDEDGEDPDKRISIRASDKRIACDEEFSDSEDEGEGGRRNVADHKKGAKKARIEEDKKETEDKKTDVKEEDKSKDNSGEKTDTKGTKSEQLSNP
[3] abbreviates: Compound 001 1 μM vs vehicle, day 5.

SMILES strings stand for the structures. Read-outs that look alike come from different tables or passages of the source.

Chain of HDAC3 (O15379 whole entry): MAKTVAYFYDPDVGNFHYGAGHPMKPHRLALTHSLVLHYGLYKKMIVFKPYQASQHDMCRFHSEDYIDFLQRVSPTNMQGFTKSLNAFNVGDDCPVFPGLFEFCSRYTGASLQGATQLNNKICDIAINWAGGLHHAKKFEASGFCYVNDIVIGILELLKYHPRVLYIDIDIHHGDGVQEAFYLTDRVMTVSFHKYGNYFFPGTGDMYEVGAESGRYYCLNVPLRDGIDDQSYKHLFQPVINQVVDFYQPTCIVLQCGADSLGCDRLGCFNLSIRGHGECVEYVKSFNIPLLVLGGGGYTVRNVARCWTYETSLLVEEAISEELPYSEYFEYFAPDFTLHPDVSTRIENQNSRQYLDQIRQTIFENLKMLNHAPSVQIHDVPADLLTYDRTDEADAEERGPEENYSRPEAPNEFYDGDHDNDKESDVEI
Chain of HDAC3 (Q9Y618 395-489 partner limits assumed): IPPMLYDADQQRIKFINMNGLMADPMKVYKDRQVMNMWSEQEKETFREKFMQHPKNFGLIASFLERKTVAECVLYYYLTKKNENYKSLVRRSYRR

As a reminder, the IC50 is the concentration that inhibits the measured activity by half. Consider `Nc1ccc(-c2cccs2)cc1NC(=O)c1ccc2nc(N3CCNCC3)ccc2c1` [Compound 001, N-(2-amino-5-(thiophen-2-yl)phenyl)-2-(piperazin-1-yl)quinoline-6-carboxamide], for which, in data set [1] (setting [3]), the “candidate gene expression ratio Bcl11a” value is on record as 0.8, the “candidate gene expression ratio Gata1” value is 1.0, the “candidate gene expression ratio Gata2” value worked out at 2.8 and the “candidate gene expression ratio KLF1” value came out at 0.9. Also, in data set [1] (setting [3]), the “candidate gene expression ratio Myb” value turned out to be 1.1 and the “candidate gene expression ratio Sox6” value stood at 0.4. In addition, in data set [1] (GeneChip, FIG. 1A), the Bcl11a down-regulation turned out to be 1.3 fold, the Gata2 up-regulation is recorded as 2.8 fold, the Klf1 expression change entry is given as “unaffected” and the Myb expression change result is listed as “unaffected”. The compound further had a Sox6 down-regulation in data set [1] (GeneChip, FIG. 1A) of 2.5 fold. In addition, the “HbG mRNA relative to HbB mRNA, normalized to predose” value in the data set on HbG mRNA is given as “dose-dependent increase”. For the same compound, on HDAC3, the “selectivity over HDAC3” value is “approximately 100 fold”. On HDAC3 (Table 2, read-out: IC50 HDAC3), the IC50 amounted to 114 nM. For the same compound, the IC50 on HDAC3 (pre-incubation time of 24 hours, FIG. 9A, 17B, read-out: IC50 against HDAC3) amounted to 1300 nM. Moreover, in data set [2], the “fold less cytotoxic than Entinostat” value is reported as 10 fold. This compound displayed an IC50 in data set [2] (Homo sapiens, 48 h, FIG. 19A) of 45000 nM. Further, the IC50 at HDAC2 (Table 2, read-out: IC50 HDAC2) was 15 nM. Further, the IC50 at HDAC2 (pre-incubation time of 24 hours, FIG. 9A, 17B, read-out: IC50 against HDAC2) came to 18 nM.

The values above are taken from patent publication US20160137630A1, “INDUCTION OF GATA2 BY HDAC1 AND HDAC2 INHIBITORS” (ACETYLON PHARMACEUTICALS, INC., priority 2014, published 2016).
